Data set [1] can be described thus: Toxicity in female Sprague-Dawley rat assessed as minimal corneal neovascularization at 7.5 mg/kg, po administered once daily for 4 weeks. In kind it is organism-based. Conditions: in vivo, 672 h; call rule not given here.
Data set [2] deals with Trace amine-associated receptor 1 (Mus musculus, UniProt Q923Y8). Nature of the data set: Agonist activity at mouse TAAR1. Format: functional.
The target of data set [3] is T1, Trace amine-associated receptor 1 (Homo sapiens, UniProt Q96RJ0).
T1 sequence (Q96RJ0 whole entry): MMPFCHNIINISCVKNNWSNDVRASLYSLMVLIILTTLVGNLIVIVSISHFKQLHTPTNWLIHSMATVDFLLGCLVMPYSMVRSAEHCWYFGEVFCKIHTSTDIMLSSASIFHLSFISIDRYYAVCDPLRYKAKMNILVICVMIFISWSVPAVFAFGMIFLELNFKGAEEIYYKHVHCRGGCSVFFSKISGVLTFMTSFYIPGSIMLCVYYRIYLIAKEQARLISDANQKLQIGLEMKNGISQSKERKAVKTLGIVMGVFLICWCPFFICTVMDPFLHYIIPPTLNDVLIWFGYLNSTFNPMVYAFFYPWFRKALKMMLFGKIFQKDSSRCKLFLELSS
Nature of the data set: Agonist activity at human TAAR1 extracted from CHO-K1 cell membrane coexpressing AGTRL1/Gi by cAMP assay. In kind it is functional, cell membranes. A general note: Cyclic AMP is a second messenger, typically raised through Gs and lowered through Gi signalling.

In data set [4] the target is 5-hydroxytryptamine receptor 2C (Mus musculus) (UniProt P34968). Nature of the data set: Agonist activity at mouse 5-HT2CR by measuring maximum efficacy relative to control. In kind it is functional. Conditions: filed as agonist.
Data set [5] is described as follows: Ratio of drug concentration in male Sprague-Dawley rat brain to plasma at 5 mg/kg, IG measured after 6 hrs by LC-MS/MS analysis. In kind it is ADME, organism-based. Conditions: brain and plasma, po, read-out: BPR.
The target of data set [6] is Histamine H2 receptor (Homo sapiens) (UniProt P25021). The data set is described as follows: Binding affinity to H2 receptor (unknown origin) at 10 uM by radioligand binding assay relative to control.
The nature of data set [7]: Cardiotoxicity in conscious cynomolgus monkey assessed as change in systolic pressure at 3.125 to 12.5 mg/kg, IG measured within 25 hrs. Format: toxicity, organism-based, Macaca fascicularis. Conditions: in vivo, po, dose 3.125-12.5 mg/kg.
A short description of data set [8]: Toxicity in male Beagle dog assessed as change in clinical chemistry at 0.75 to 2.5 mg/kg, IG administered once daily for 4 weeks and measured after 4 weeks. Conditions: in vivo, po, 1344 h, dose 0.75-2.5 mg/kg, time 8 weeks. In kind it is organism-based, Canis lupus familiaris.
The nature of data set [9]: Drug concentration in male Sprague-Dawley rat brain at 5 mg/kg, IG measured after 6 hrs by LC-MS/MS analysis. In kind it is ADME, organism-based. Conditions: in vivo, po.
The nature of data set [10]: Toxicity in female Sprague-Dawley rat assessed as slow respiration at 7.5 mg/kg, po administered once daily for 4 weeks. Format: organism-based. Conditions: in vivo, 672 h.
For a further data set, the system named is Mus musculus. Nature of the data set: Antipsychotic activity against MK-801 induced hypermobilization in male C57BL/6J mouse model assessed as reduction in hypermobilization state at 10 mg/kg, IG pretreated with compound followed by MK-801 addition and measured after 30 mins by open field test. In kind it is functional, organism-based.
Data set [11] in a line: Mutagenicity in Salmonella typhimurium TA1535 by Ames test. Format: toxicity. Conditions: salmonella enterica subsp. enterica serovar typhimurium. For orientation: In the Ames test, an excess of revertant colonies over the control signals mutagenicity.

In general, EC50 refers to the concentration at which the effect is half-maximal. A word on the Emax: it is the size of the effect at its maximum, as opposed to the concentration needed.

5-hydroxytryptamine receptor 2C (Mus musculus), sequence (P34968 whole entry): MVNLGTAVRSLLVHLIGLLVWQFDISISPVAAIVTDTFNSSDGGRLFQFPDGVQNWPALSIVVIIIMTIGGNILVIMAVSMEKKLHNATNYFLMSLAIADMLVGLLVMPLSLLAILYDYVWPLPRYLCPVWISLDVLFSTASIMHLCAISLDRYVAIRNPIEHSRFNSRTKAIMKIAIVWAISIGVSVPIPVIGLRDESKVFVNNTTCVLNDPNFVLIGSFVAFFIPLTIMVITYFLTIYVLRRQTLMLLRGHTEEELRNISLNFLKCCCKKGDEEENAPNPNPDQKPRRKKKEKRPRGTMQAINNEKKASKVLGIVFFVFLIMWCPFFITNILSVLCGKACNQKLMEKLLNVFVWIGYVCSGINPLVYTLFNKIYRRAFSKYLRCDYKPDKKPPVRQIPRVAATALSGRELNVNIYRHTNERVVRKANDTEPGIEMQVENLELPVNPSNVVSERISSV
Histamine H2 receptor (Homo sapiens), sequence (P25021 whole entry): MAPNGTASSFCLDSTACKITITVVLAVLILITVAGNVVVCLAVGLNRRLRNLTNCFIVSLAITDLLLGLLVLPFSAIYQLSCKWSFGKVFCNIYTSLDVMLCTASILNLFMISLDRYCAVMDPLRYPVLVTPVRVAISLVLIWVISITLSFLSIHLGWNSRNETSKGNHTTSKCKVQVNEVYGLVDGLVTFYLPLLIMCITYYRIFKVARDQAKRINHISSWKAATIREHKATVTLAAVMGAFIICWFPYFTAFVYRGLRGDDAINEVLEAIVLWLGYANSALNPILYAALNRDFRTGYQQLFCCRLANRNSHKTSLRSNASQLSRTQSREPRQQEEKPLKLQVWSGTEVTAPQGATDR
Trace amine-associated receptor 1 (Mus musculus, UniProt Q923Y8), sequence (Q923Y8 whole entry): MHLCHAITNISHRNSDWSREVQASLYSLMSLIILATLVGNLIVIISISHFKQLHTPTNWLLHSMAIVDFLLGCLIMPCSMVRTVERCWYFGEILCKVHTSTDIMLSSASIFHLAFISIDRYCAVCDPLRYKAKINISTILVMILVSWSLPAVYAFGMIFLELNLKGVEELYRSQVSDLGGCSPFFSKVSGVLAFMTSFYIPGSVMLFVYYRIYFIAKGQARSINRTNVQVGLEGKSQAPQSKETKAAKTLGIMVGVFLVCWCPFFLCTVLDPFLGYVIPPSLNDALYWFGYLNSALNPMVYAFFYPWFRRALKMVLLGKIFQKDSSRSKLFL

Consider `c1cc2c(s1)[C@@H]1CNCCN1CC2`, for which the Activity entry in data set [1] was “Toxic”; in data set [6] it was 1.39%; in data set [7], “Non-toxic”; in data set [8], “Non-toxic”; in data set [10] it was “Toxic”; with Mus musculus it was “Active; Similar Effect Observed Compared To Brexpiprazole”. In data set [11], the Activity result is recorded as “Non-toxic”. Further, the concentration for a half-maximal effect (EC50) in [2] turned out to be 72.3 nM; in data set [3], 22 nM. The same compound gave an Emax in [4] of 103%. For the same compound, in data set [5], the Kp at 6 h turned out to be 4.22. In data set [9], the Ct is 3832 nmol/kg.
